Experiments:
[1] = tested on: hypercholesterolemic swine; assay: Plasma thromboxane B2 and platelet factor 4 in hypercholesterolemic swine; format: in vivo; set-up: Platelet Factor 4: unit not given here; settings: control diet + 50 ppm, 42 days
Source text: All assays conducted on chicken or swine serum were done following the protocols described in A. A. Qureshi et al., "Lowering Of Serum Cholesterol In Hypercholesterolemic Humans By Tocotrienols" (Palmvitee), Am. J. Clin. Nutr., 53, pp. 1021S-26S (1991). All enzymatic assays were done following the protocols described in A. A. Qureshi et al., "Effects of Cereals and Culture Filtrate of Trichoderma viride on Lipid Metabolism of Swine", Lipids, 17, pp. 924 (1982). Plasma insulin, glucagon and TNF levels were measured using radioinnumoassay kits from Ventrex Laboratories, Inc. (Portland, Me.), ICN Biomedicals, Inc. (Costa Mesa, Calif.) and Genzyme Corp. (Cambridge, Mass.), respectively.
(§1) Each group of three 5-month old swine was administered either a control diet or a control diet supplemented with 50 ppm of TRF or 50 ppm of an individual tocotrienol. The samples were prepared as described in Example 11. After a 12 hour fast, serum and plasma samples were taken a 0 hrs, 21 days and 42 days from the start of the feeding period. After taking serum and plasma samples from the pigs at the end of the 42 day period, all of the swine were fasted for a total of 40 hours, followed by a 48 hour refeeding period. One swine from each group was sacrificed at that time and the liver, intestine, lung, heart, loin muscle, adipose tissue and ham muscle were removed.
This example was conducted to measure the serum levels of apolipoprotein (a)1, apolipoprotein B, triglycerides, glucose, insulin and glucagon and the plasma levels of thromboxane B2 and platelet factor 4 in the swine described in Example 15.

[2] = tested on: hypercholesterolemic swine; assay: Serum cholesterol, apolipoproteins, triglycerides, glucose, insulin and glucagon in hypercholesterolemic swine; format: in vivo; settings: for Apo A1, percentage of control / Apo A1 concentration in serum / Apo B concentration in serum / Apo B, percentage of control / Triglycerides concentration in serum / Triglycerides, percentage of control: 6 weeks
Procedure: All assays conducted on chicken or swine serum were done following the protocols described in A. A. Qureshi et al., "Lowering Of Serum Cholesterol In Hypercholesterolemic Humans By Tocotrienols" (Palmvitee), Am. […] Plasma insulin, glucagon and TNF levels were measured using radioinnumoassay kits from Ventrex Laboratories, Inc. (Portland, Me.), ICN Biomedicals, Inc. (Costa Mesa, Calif.) and Genzyme Corp. (Cambridge, Mass.), respectively.
We next measured the effects of various tocotrienols from rice bran on HMG-CoA reductase and cholesterol 7α-hydroxylase in hypercholesterolemic swine. Since pigs are very similar to humans in their cholesterol metabolism, they provide a useful model from which to study hypercholesterolemia and related diseases. […] As a result, the pigs develop complicated atherosclerotic plaques that closely resemble advanced atherosclerotic lesions found in humans.
as §1, with “The samples were prepared as described in Example 11.” left out
The experimental conditions were the same, except that the two remaining swine in each group were transferred to the unsupplemented control diet following the 42 day feeding period. After an additional 70 days, serum and plasma samples were collected from these swine after a 12 hour fast for testing.

[3] = 70 days on control diet after 42 days at 50 ppm

CC(C)=CCC/C(C)=C/CC/C(C)=C/CCC1(C)CCc2cc(O)ccc2O1 (stereo not drawn) [P21, 3,4-dihydro-2-methyl-2-(4,8,12-trimethyltrideca-3' (E),7'(E),11'-trienyl)-2H-1-benzopyran-6-ol]
Platelet Factor 4, percentage of control [1]: 82.59%
Thromboxane B2 [1]: 60.48 pg/100 ml
Thromboxane B2, percentage of control [1]: 87.66%
HDL-CHOLESTEROL CONCENTRATION IN SERUM [2, 3]: 31.15 mg/100 ml
HDL-CHOLESTEROL, Percentage of Control Activity [2, 3]: 103.50%
HDL-CHOLESTEROL, percentage of baseline value [2, 3]: 135.72%
HDL:LDL CHOLESTEROL, Percentage of Control Activity [2, 3]: 83.83%
LDL-CHOLESTEROL CONCENTRATION IN SERUM [2, 3]: 227.82 mg/100 ml
LDL-CHOLESTEROL, Percentage of Control Activity [2, 3]: 88.02%
LDL-CHOLESTEROL, percentage of baseline value [2, 3]: 125.11%
TOTAL CHOLESTEROL CONCENTRATION IN SERUM [2, 3]: 276.23 mg/100 ml
TOTAL CHOLESTEROL, Percentage of Control Activity [2, 3]: 76.20%
TOTAL CHOLESTEROL, percentage of baseline value [2, 3]: 125.39%
Apo A1, percentage of control ([2]; control diet + 50 ppm): 104.01%
Apo A1 concentration in serum ([2]; control diet + 50 ppm): 26.72 ± 1.14 mg/100 ml
Apo B concentration in serum ([2]; control diet + 50 ppm): 111.78 ± 1.80 mg/100 ml
Apo B, percentage of control ([2]; control diet + 50 ppm): 75.64%
Triglycerides concentration in serum ([2]; control diet + 50 ppm): 64.44 mg/100 ml
Triglycerides, percentage of control ([2]; control diet + 50 ppm): 84.17%
HDL-CHOLESTEROL CONCENTRATION IN SERUM ([2]; control diet + 50 ppm, 21 days): 26.23 mg/100 ml
HDL-CHOLESTEROL, percentage of baseline value ([2]; control diet + 50 ppm, 21 days): 114.29%
HDL:LDL CHOLESTEROL, percentage of baseline value ([2]; control diet + 50 ppm, 21 days): 93.32%
LDL-CHOLESTEROL CONCENTRATION IN SERUM ([2]; control diet + 50 ppm, 21 days): 194.17 mg/100 ml
LDL-CHOLESTEROL, percentage of baseline value ([2]; control diet + 50 ppm, 21 days): 106.63%
TOTAL CHOLESTEROL CONCENTRATION IN SERUM ([2]; control diet + 50 ppm, 21 days): 236.40 mg/100 ml
TOTAL CHOLESTEROL, percentage of baseline value ([2]; control diet + 50 ppm, 21 days): 107.20%
Glucagon ([2]; control diet + 50 ppm, 42 days): 278.36 pg/mL
Glucagon, percentage of control ([2]; control diet + 50 ppm, 42 days): 84.25%
Glucose ([2]; control diet + 50 ppm, 42 days): 72.63 mg/100 ml
Glucose, percentage of control ([2]; control diet + 50 ppm, 42 days): 75.66%
HDL-CHOLESTEROL CONCENTRATION IN SERUM ([2]; control diet + 50 ppm, 42 days): 30.74 mg/100 ml
HDL-CHOLESTEROL, Percentage of Control Activity ([2]; control diet + 50 ppm, 42 days): 113.90%
HDL-CHOLESTEROL, percentage of baseline value ([2]; control diet + 50 ppm, 42 days): 133.94%
HDL:LDL CHOLESTEROL, Percentage of Control Activity ([2]; control diet + 50 ppm, 42 days): 57.82%
HDL:LDL CHOLESTEROL, percentage of baseline value ([2]; control diet + 50 ppm, 42 days): 81.59%
Insulin ([2]; control diet + 50 ppm, 42 days): 21.4 µU/mL
Insulin, percentage of control ([2]; control diet + 50 ppm, 42 days): 104.63%
LDL-CHOLESTEROL CONCENTRATION IN SERUM ([2]; control diet + 50 ppm, 42 days): 198.76 mg/100 ml
LDL-CHOLESTEROL, Percentage of Control Activity ([2]; control diet + 50 ppm, 42 days): 66.53%
LDL-CHOLESTEROL, percentage of baseline value ([2]; control diet + 50 ppm, 42 days): 109.15%
TOTAL CHOLESTEROL CONCENTRATION IN SERUM ([2]; control diet + 50 ppm, 42 days): 238.17 mg/100 ml
TOTAL CHOLESTEROL, Percentage of Control Activity ([2]; control diet + 50 ppm, 42 days): 68.90%
TOTAL CHOLESTEROL, percentage of baseline value ([2]; control diet + 50 ppm, 42 days): 108.20%

CC(C)=CCC/C(C)=C/CC/C(C)=C/CCC1CCc2cc(O)ccc2O1 (stereo not drawn) [P25, 3,4-dihydro-2-(4,8,12-trimethyltrideca-3'(E),7'(E),11'-trienyl)-2H-1-benzopyran-6-ol]
Platelet Factor 4 [1]: 19.15
Platelet Factor 4, percentage of control [1]: 79.36%
Thromboxane B2 [1]: 57.03 pg/100 ml
Thromboxane B2, percentage of control [1]: 83.02%
HDL-CHOLESTEROL CONCENTRATION IN SERUM [2, 3]: 32.65 mg/100 ml
HDL-CHOLESTEROL, Percentage of Control Activity [2, 3]: 114.29%
HDL-CHOLESTEROL, percentage of baseline value [2, 3]: 149.36%
HDL:LDL CHOLESTEROL, Percentage of Control Activity [2, 3]: 82.06%
LDL-CHOLESTEROL CONCENTRATION IN SERUM [2, 3]: 233.75 mg/100 ml
LDL-CHOLESTEROL, Percentage of Control Activity [2, 3]: 90.17%
LDL-CHOLESTEROL, percentage of baseline value [2, 3]: 128.17%
TOTAL CHOLESTEROL CONCENTRATION IN SERUM [2, 3]: 268.90 mg/100 ml
TOTAL CHOLESTEROL, Percentage of Control Activity [2, 3]: 75.60%
TOTAL CHOLESTEROL, percentage of baseline value [2, 3]: 124.45%
Apo A1, percentage of control ([2]; control diet + 50 ppm): 104.05%
Apo A1 concentration in serum ([2]; control diet + 50 ppm): 26.73 ± 1.22 mg/100 ml
Apo B concentration in serum ([2]; control diet + 50 ppm): 106.63 ± 1.72 mg/100 ml
Apo B, percentage of control ([2]; control diet + 50 ppm): 72.16%
Triglycerides concentration in serum ([2]; control diet + 50 ppm): 62.00 ± 1.19 mg/100 ml
Triglycerides, percentage of control ([2]; control diet + 50 ppm): 80.98%
HDL-CHOLESTEROL CONCENTRATION IN SERUM ([2]; control diet + 50 ppm, 21 days): 25.68 mg/100 ml
HDL-CHOLESTEROL, percentage of baseline value ([2]; control diet + 50 ppm, 21 days): 117.47%
HDL:LDL CHOLESTEROL, percentage of baseline value ([2]; control diet + 50 ppm, 21 days): 89.20%
LDL-CHOLESTEROL CONCENTRATION IN SERUM ([2]; control diet + 50 ppm, 21 days): 191.05 mg/100 ml
LDL-CHOLESTEROL, percentage of baseline value ([2]; control diet + 50 ppm, 21 days): 104.76%
TOTAL CHOLESTEROL CONCENTRATION IN SERUM ([2]; control diet + 50 ppm, 21 days): 229.90 mg/100 ml
TOTAL CHOLESTEROL, percentage of baseline value ([2]; control diet + 50 ppm, 21 days): 106.33%
Glucagon ([2]; control diet + 50 ppm, 42 days): 274.41 pg/mL
Glucagon, percentage of control ([2]; control diet + 50 ppm, 42 days): 83.05%
Glucose ([2]; control diet + 50 ppm, 42 days): 71.89 mg/100 ml
Glucose, percentage of control ([2]; control diet + 50 ppm, 42 days): 74.89%
HDL-CHOLESTEROL CONCENTRATION IN SERUM ([2]; control diet + 50 ppm, 42 days): 31.81 mg/100 ml
HDL-CHOLESTEROL, Percentage of Control Activity ([2]; control diet + 50 ppm, 42 days): 123.75%
HDL-CHOLESTEROL, percentage of baseline value ([2]; control diet + 50 ppm, 42 days): 145.52%
HDL:LDL CHOLESTEROL, Percentage of Control Activity ([2]; control diet + 50 ppm, 42 days): 55.59%
HDL:LDL CHOLESTEROL, percentage of baseline value ([2]; control diet + 50 ppm, 42 days): 74.58%
Insulin ([2]; control diet + 50 ppm, 42 days): 20.9 µU/mL
Insulin, percentage of control ([2]; control diet + 50 ppm, 42 days): 101.90%
LDL-CHOLESTEROL CONCENTRATION IN SERUM ([2]; control diet + 50 ppm, 42 days): 198.01 mg/100 ml
LDL-CHOLESTEROL, Percentage of Control Activity ([2]; control diet + 50 ppm, 42 days): 65.51%
LDL-CHOLESTEROL, percentage of baseline value ([2]; control diet + 50 ppm, 42 days): 107.48%
TOTAL CHOLESTEROL CONCENTRATION IN SERUM ([2]; control diet + 50 ppm, 42 days): 237.64 mg/100 ml
TOTAL CHOLESTEROL, Percentage of Control Activity ([2]; control diet + 50 ppm, 42 days): 68.60%
TOTAL CHOLESTEROL, percentage of baseline value ([2]; control diet + 50 ppm, 42 days): 107.60%

Source: patent US6239171A, “Tocotrienols and tocotrienol-like compounds and methods for their use” (Lipogenics, Inc., priority 1998, dated 2001)
